{"source": "patent US20230390277A1", "about": "“METHODS TO SENSITIZE TUMORS TO TREATMENT BY IMMUNOTHERAPY” (Ohio State Innovation Foundation, priority 2020, published 2023)", "key": {"MP2 pODD flank tumors": {"tested_on": "MP2 pODD flank tumors", "experiment": "in vivo bioluminescent imaging, heterotopic MP2 pODD flank tumors", "set-up": "species or system mouse", "method": "In vivo bioluminescent imaging. […] For heterotopic flank tumor experiments, 1×10^6 HeLa pODD or 5×10^6 MP2 cells were injected subcutaneously (s.c.) into the flanks of 6-wk-old female (HeLa pODD) or male (N1P2 pODD or MP2 CMV) immunocompromised athymic nu/nu mice. Replicate experiments with groups of 4-6 mice were used for statistical reproducibility. Caliper measurements of opposing diameters were used to calculate the tumor volumes using the modified ellipsoidal formula: tumor volume=(length×width^2)[23]. Upon reaching 100 mm^3, the animals were given 100 mg/kg D-luciferin intraperitoneally and bioluminescence images were captured using IVIS In Vivo Imaging System Lumina II (Perkin Elmer Inc). […] Bioluminescent data were analyzed using living Image software (Perkin Elmer Inc) and calculated as photon flux/sec. Obtained individual photon flux peak values were then normalized to baseline for each mouse and averaged per group. Gas inhalation experiments were performed by switching medical air and carbogen gas sources for the IVIS anesthesia vaporizer. Initial baselines were established in medical air under anesthesia, then the mice were subjected to 30 minutes of either medical air or carbogen rebreathing in an air-tight chamber while awake. After 30 minutes, photon flux was established in respective gas sources as a carrier for isoflurane anesthesia."}, "[1]": {"tested_on": "pODD-Luc reporter in MP2 pODD cells", "experiment": "in vitro luciferase assay, MP2 pODD cells", "type": "cell-based, human", "conditions": "one hour of 10 μM", "method": "PCR-amplified cassette was then digested with Asci and Pmel restriction enzymes and ligated into pLenti-C-Myc-DDK-IRES-Puro. Correct orientation and sequence was confirmed by Sanger DNA sequencing. HeLa pODD and MIP2 pODD transfectants were selected with 2 μg/ml Puromycin for two weeks. Stable MP2 CMV Cells were generated by lentiviral transduction of MP2 cells with pLenti-CMV-Puro-Luc lentiviral vector (Addgene#17477) with 2 Puromycin selection for two weeks. Cells were grown in Dulbecco's Modified Eagle's Medium (DMEM) containing 25 mM D-glucose, 4 mM glutamine and 44 mM sodium bicarbonate in 5% CO2, if not stated otherwise. The cells were exposed to hypoxia (1% O2) in H35 Hypoxic Workstation (Hypoxygen) with 5% CO2 at 37° C. In some experiments, we used a hypoxia mimetic dimethyloxalyglycine (DMOG) as described. Cell counts and cellular proliferation were established using hemocytometer to determine the cell number and trypan blue exclusion assay to establish the fraction of viable/dead cells. All human cell lines have been authenticated using STR profiling within the past 3 years. All experiments were performed with mycoplasma-free cells.\nIn vitro luciferase Assay. Proteins were extracted using Luciferase Assay Lysis Buffer (125 mM Tris-HCl, pH 7.5, 11.0 mM DTT, 10 mM EGTA, 50% Glycerol, 5% Triton X-100) and 200 μl/sample were transferred to 96-well plate and D-luciferin was added to the final concentration of 150 μg/ml immediately before the assay. Bioluminescence was measured on a Synergy H1 Hybrid Plate Reader (Biotek) after a 10-minute incubation period (10 slsample, Gain=150) in triplicates."}, "PDE10A": {"target": "T1, PDE10A (Homo sapiens, UniProt Q9Y233)", "T1 construct": "purchased BPS Bioscience", "T1 sequence (Q9Y233 whole entry)": "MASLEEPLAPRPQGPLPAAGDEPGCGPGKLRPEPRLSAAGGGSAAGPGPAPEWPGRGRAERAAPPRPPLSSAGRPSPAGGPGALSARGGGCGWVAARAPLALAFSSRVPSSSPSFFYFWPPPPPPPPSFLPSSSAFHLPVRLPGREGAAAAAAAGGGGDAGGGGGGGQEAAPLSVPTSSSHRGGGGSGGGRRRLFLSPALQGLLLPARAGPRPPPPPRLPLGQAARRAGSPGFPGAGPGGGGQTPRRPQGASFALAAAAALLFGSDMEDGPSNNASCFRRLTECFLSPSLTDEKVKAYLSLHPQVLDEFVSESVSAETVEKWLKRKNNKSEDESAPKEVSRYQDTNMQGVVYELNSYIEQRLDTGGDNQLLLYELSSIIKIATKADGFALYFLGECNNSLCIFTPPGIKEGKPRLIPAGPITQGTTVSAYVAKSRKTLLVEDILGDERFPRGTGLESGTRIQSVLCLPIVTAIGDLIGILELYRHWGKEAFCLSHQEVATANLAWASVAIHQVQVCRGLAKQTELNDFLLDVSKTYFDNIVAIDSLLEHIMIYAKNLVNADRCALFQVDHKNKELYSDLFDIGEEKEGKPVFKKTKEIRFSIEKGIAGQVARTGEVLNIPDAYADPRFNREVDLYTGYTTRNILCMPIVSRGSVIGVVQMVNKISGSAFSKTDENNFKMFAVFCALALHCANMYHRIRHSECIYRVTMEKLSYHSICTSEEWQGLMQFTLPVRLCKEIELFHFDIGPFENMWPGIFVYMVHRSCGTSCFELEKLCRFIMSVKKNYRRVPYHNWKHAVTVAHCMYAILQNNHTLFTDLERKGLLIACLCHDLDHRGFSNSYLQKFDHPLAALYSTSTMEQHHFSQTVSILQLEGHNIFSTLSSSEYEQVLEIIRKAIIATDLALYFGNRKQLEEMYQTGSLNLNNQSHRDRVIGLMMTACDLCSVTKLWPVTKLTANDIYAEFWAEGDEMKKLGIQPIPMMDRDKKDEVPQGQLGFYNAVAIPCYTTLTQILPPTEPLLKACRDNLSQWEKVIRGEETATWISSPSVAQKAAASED", "experiment": "PDE10A purified enzyme activity assay (BPS Bioscience)", "type": "biochemical", "conditions": "for PDE inhibition IC25: dose response analysis", "from_the_text": "We therefore defined the structure activity relationship (SAR) of PPV relative to two assays: inhibition of cellular OCR by Seahorse XE assay, and inhibition of PDE10A by purified enzyme activity (PDE10A activity assay, BPS Bioscience). […] Because the top portion of PPV was a planar structure like that of rotenone, we decided to focus our attention on the lower portion of the molecule."}, "[2]": {"tested_on": "CD8 T cells in MC38 tumors", "experiment": "multispectral immunophenotyping of tumor infiltrating lymphocytes in MC38 tumors", "type": "in vivo, mouse", "conditions": "2 mg/kg IV days 8, 10, 13; tumors harvested day 15", "method": "Panel A Tumor infiltrating immune cells isolated from Day 15 MC38 tumors (n=4/g) were stained for lineage (CD45, CD3, CD8, […], and CD11b) and T cell exhaustion (PD1, Tim3, Slamf6, TOX, Tcf1, CD44, CD62L, CTLA4, Lag-3, Klrg1, T-bet, and Ki-67) (93-96). Cells were analyzed by Cytek Aurora multi-spectral FACS, and Umap generated based on concatenated file from each 4 FSC files without variation in cell number. Limp figure was generated by OMIQ with CD8 T cells (CD45+, CD3+, CD8+, CD11b−, CD4−). CD8 population was divided into 15 clusters based on T cell markers. Expression signatures marked (ovals) show progenitor exhausted T cells and terminally exhausted T cells. Panel B Statistical significance of clusters between control and SMV32 treated group were assessed by edgeR and SAM (n=4 mice per group).\nIn order to determine a mechanism by which reduction in hypoxia enhances immune function in the solid tumor, we undertook an investigation with multi spectral immunophenotyping. This technology uses 36 different markers simultaneously to characterize immune cell infiltrate in tumors. We performed this analysis on heterotopic NIC38 murine colorectal carcinoma tumors grown in immune-competent C57BI6 mouse strain. A cohort of tumor bearing mice were randomized to be treated with either IV delivery of vehicle control, or either PPV or SMV32. […]"}, "LLC tumor": {"tested_on": "LLC tumor", "experiment": "Lewis Lung Carcinoma (LLC) PD-1 blockade resistant tumor model", "type": "in vivo, mouse", "method": "LLC tumor bearing mice were treated as indicated on days 5, 8 and relative growth followed. P=NS for PD-1 vs PPV->PD1, 0.04 for PD-i vs SMV32->PD-1.\nFinally, as a rigorous test of anti-hypoxia agents as immuno-sensitizers of model tumors grown in mice, we next tested the PD-1 blockade resistant tumor model Lewis Lung Carcinoma (LLC). These tumors have been reported to be refractory to even full dose (200 ug/mouse) PD-1 blocking antibody."}, "MC38 colorectal tumor": {"tested_on": "MC38 colorectal tumor", "experiment": "MC38 colorectal tumors in C57Bl6 mice, sensitization to anti PD-1", "type": "in vivo, mouse", "method": "MC38 tumors grown in C57B16 mice were treated as indicated with irrelevant antibody, anti PD-1, or anti PD-1 after PPV or SMV32 n=5-7, P=<0.05* for PPV and <0.01** for SMV32.\nPapaverine and SMV32 enhance PD-1 checkpoint blockade immunotherapy for cancer treatment. Because of the literature describing the immunomodulatory effects of hypoxia^(24-27), we hypothesized that reducing hypoxia may also enhance tumor lymphocyte infiltration and function and improve immune-mediated tumor cell killing. As those of skill in the art recognize, there is a large body of literature and research on increase the supply side of the hypoxia equation, but it has been heretofore an unexpected approach to decrease the tri demand side of the hypoxia equation. We tested tumors grown from the relatively immune-sensitive syngeneic MC38 colorectal tumor line in immuno-competent C5713116 mice. […] In a second cohort, we implanted 1×10^6 cells/mouse and after 5 days, when tumors were 50-100 mm^3, they were randomized into four groups. Therapy was started with either control rat IgG antibody, or a suboptimal dose of anti PD-1(CD279) blocking monoclonal antibody (BioXCell, clone 29F.1A12, 100 μg ip every 3 days)."}, "CMT167 flank lung tumors": {"tested_on": "CMT167 flank lung tumors", "experiment": "CMT167 flank lung tumors in C57Bl6 mice, sensitization to anti PD-1", "type": "in vivo, mouse", "method": "C57B16 mice bearing CMT167 flank lung tumors were treated as indicated on days 10 and 13 and relative volume followed.\nThere are reports in the literature indicating ways that hypoxia affects immune functions of lymphocytes, MDSCs and T regulatory cells infiltrating in the tumor."}, "[3]": {"tested_on": "orthotopic MP2 pODD tumors", "experiment": "in vivo bioluminescent imaging, orthotopic MP2 pODD tumors", "set-up": "species or system mouse", "conditions": "2 mg/kg, tail vein", "method": "Orthotopic Panreatic Xenografts. MP2 PD AC cells (1×10^6) or the indicated derivates were implanted in immune-deficient athymic nu/nu mice following fACLIC approved protocols. Briefly, an incision was placed in the right flank of anesthetized animals the spleen and pancreas liberated. Cells were mixed 1:1 with Matfigel and implanted in the tail of the pancreas in 10 μl. Incision was sutured in 2 layers, animals given long lasting analgesics, and allowed to recover from anesthesia. Mice were returned to housing for post-op care and monitored daily for 4 days. Animals were checked weekly after that by palpation to determine tumor growth.\nIn vivo bioluminescent imaging. All animal experiments were performed according to protocols approved by the OSU institutional IAGLIC review (protocol #201200000124-R2), with daily veterinarian observation. For heterotopic flank tumor experiments, 1×10^6 HeLa pODD or 5×10^6 MP2 cells were injected subcutaneously (s.c.) into the flanks of 6-wk-old female (HeLa pODD) or male (N1P2 pODD or MP2 CMV) immunocompromised athymic nu/nu mice. […] Mice were anesthetized with 1.5% isoflurane and bioluminescence was measured every two minutes for the period of 25 minutes to identify peak response of each mouse to D-luciferin. Bioluminescent data were analyzed using living Image software (Perkin Elmer Inc) and calculated as photon flux/sec. […]"}, "murine tumors": {"tested_on": "murine tumors", "experiment": "murine tumor hypoxia and radiation response", "conditions": "mouse, in vivo"}, "ETC complex 1 (C1)": {"target": "ETC complex 1 (C1) (Homo sapiens, UniProt O75251+O75306+P03886)", "sequence (O75251 39-213)": "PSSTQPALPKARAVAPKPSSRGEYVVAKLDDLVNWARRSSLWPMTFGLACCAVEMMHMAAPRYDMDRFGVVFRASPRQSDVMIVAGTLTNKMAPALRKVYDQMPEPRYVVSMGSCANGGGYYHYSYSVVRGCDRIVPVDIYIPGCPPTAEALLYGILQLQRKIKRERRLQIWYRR", "sequence (O75306 34-463)": "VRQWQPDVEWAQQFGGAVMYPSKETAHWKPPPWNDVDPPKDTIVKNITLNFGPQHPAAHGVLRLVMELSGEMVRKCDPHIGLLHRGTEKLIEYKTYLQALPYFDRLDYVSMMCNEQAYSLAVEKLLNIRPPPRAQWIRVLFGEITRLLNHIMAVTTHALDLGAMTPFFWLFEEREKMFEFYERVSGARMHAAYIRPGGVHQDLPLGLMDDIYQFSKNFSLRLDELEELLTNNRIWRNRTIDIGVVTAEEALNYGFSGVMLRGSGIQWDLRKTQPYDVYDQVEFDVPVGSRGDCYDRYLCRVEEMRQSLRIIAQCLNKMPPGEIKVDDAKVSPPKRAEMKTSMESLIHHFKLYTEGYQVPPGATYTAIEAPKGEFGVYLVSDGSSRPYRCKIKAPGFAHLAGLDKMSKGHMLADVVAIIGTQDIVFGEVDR", "sequence (P03886 whole entry)": "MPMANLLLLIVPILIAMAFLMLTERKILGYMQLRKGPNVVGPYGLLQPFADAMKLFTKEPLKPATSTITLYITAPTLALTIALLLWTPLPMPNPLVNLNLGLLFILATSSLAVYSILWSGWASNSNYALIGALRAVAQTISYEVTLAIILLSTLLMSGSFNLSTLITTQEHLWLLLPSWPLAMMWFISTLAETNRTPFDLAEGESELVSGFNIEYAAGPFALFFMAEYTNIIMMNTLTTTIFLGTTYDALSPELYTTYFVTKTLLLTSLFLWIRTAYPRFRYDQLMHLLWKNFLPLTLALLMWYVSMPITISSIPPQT", "experiment": "inhibition of cellular OCR by Seahorse XE assay", "type": "cell-based", "conditions": "for C1 inhibitor selectivity: vs PDE10A", "from_the_text": "PPVs PDE and mitochondrial activities are chemically separable. Papaverine has been traditionally thought to be effective as a vasodilator for the treatment of conditions including erectile dysfunction because it can inhibit PDE10A (like PDE 5 inhibitors sildenafil and tadalafil). However, PDE inhibition is not responsible for OCR effects in vitro, so we postulated that there are two activities in PPV, one inhibiting ETC complex 1 (C1) and one inhibiting PDE10A that may reside in different parts of the molecule. We therefore defined the structure activity relationship (SAR) of PPV relative to two assays: inhibition of cellular OCR by Seahorse XE assay, and inhibition of PDE10A by purified enzyme activity (PDE10A activity assay, BPS Bioscience). Because PPV can compete with rotenone at complex 1 (23), we reasoned that they may be binding the same site and therefore the structures would be similar relative to their target. Because the top portion of PPV was a planar structure like that of rotenone, we decided to focus our attention on the lower portion of the molecule."}, "cells": {"tested_on": "cells", "experiment": "in vitro washout experiments", "type": "cell-based", "conditions": "initial studies"}}, "note": "Residues, ends and D or L forms follow the SMILES beside them. *: point of attachment. Cbz = O=C(OCc1ccccc1)*", "data": [{"compound": "O=[N+]([O-])c1ccc(O)c([N+](=O)[O-])c1", "note": "[2,4-DNP, 2,4-dinitrophenol]", "values": [{"measurement": "increase of photon flux compared to baseline", "setting": "MP2 pODD flank tumors; single intraperitoneal dose of 20 mg/kg", "value": 1.6, "unit": "×"}]}, {"compound": "O=C(O)C(Cl)Cl", "note": "[DCA, Dichloroacetate]", "values": [{"measurement": "increase of photon flux", "setting": "MP2 pODD flank tumors; intraperitoneal 75 mg/kg", "value": 1.8, "unit": "×"}]}, {"compound": "CC(C)C[C@@H](C=O)NC(=O)[C@H](CC(C)C)NC(=O)[C@H](CC(C)C)NC(=O)OCc1ccccc1", "note": "[MG132] (Cbz-Leu-Leu-Leu-aldehyde)", "values": [{"measurement": "increase in pODD-Luc activity compared to 24 h hypoxia", "setting": "[1]", "value": 70, "unit": "fold"}, {"measurement": "induction of pODD-Luc activity compared to normoxia", "setting": "[1]", "value": 377, "unit": "fold"}]}, {"compound": "COc1cc2ccnc(Cc3cc(C)cc(C)c3)c2cc1OC", "note": "[SMV23]", "values": [{"measurement": "PDE inhibition IC25", "setting": "PDE10A", "value": 0.5, "unit": "µM"}, {"measurement": "PDE10A inhibitor selectivity", "setting": "PDE10A; vs C1", "value": "relatively pure"}]}, {"compound": "COc1cc2ccnc(Cc3cccc4ccccc34)c2cc1OC", "note": "[SMV32]", "values": [{"measurement": "exhausted CD8 T cell populations", "setting": "[2]", "value": "shift from terminal (known to be non-functional) to progenitor cells"}, {"measurement": "comparison with PPV for sensitizing tumors to PD-1 blockade", "setting": "LLC tumor; resistant LLC tumors", "value": "superior to PPV"}, {"measurement": "therapeutic effect, compound first and PD-1 antibody second", "setting": "LLC tumor; treated on days 5, 8", "value": "significant growth inhibition"}, {"measurement": "PDE inhibition IC25", "setting": "PDE10A", "value": 13.4, "unit": "µM"}, {"measurement": "effect on PD-1 blockade", "setting": "MC38 colorectal tumor; 2 mg/kg iv 16 hours prior to suboptimal anti PD-1 (100 μg ip every 3 days)", "value": "enhance the effectiveness of suboptimal PD-1 blockade"}, {"measurement": "tumor growth, compound alone", "setting": "MC38 colorectal tumor; repeated dosing, no antibody", "value": "no effect on tumor growth"}, {"measurement": "tumor growth delay", "setting": "CMT167 flank lung tumors; given 16 hours prior to sub-optimal anti-PD-1, days 10 and 13", "value": "significant tumor growth delay"}, {"measurement": "comparison with PPV for sensitizing tumors to PD-1 blockade", "setting": "CMT167 flank lung tumors; same dose as PPV", "value": "superior to PPV"}, {"measurement": "photon flux compared to PPV treated mice", "setting": "[3]", "value": "trended to longer duration of action and lower luciferase activity at 6 hours"}, {"measurement": "radiation response", "setting": "murine tumors", "value": "increase radiation response of murine tumors"}, {"measurement": "tumor hypoxia", "setting": "murine tumors", "value": "reduce tumor hypoxia"}, {"measurement": "mitochondrial activity", "setting": "ETC complex 1 (C1)", "value": "retain mitochondrial activity"}, {"measurement": "C1 inhibitor selectivity", "setting": "ETC complex 1 (C1)", "value": "relatively pure"}, {"measurement": "washout from cells", "setting": "cells", "value": "does not wash out of cells"}]}, {"compound": "COc1ccc(OCc2nccc3cc(OC)c(OC)cc23)cc1OC", "note": "[SMV37]", "values": [{"measurement": "radiation response", "setting": "murine tumors", "value": "increase radiation response of murine tumors"}, {"measurement": "tumor hypoxia", "setting": "murine tumors", "value": "reduce tumor hypoxia"}, {"measurement": "mitochondrial activity", "setting": "ETC complex 1 (C1)", "value": "retain mitochondrial activity"}, {"measurement": "C1 inhibitor selectivity", "setting": "ETC complex 1 (C1)", "value": "relatively pure"}]}, {"compound": "CC(C)C[C@H](NC(=O)[C@H](Cc1ccccc1)NC(=O)c1cnccn1)B(O)O", "note": "[bortezomib]", "values": [{"measurement": "photon flux", "setting": "MP2 pODD flank tumors; 1 mg/kg intraperitoneally, 2 hours post injection", "value": "significant increase of photon flux"}]}]}
